Assay results published in patent publication US7858788B2, “Bicyclic carbamoylpyridone derivative having HIV integrase inhibitory activity” (Shionogi & Co., Ltd., priority 2005, dated 2010).

biological target: HIV integrase (Human immunodeficiency virus type 1 group M subtype B, UniProt P04585); experiment: HIV integrase inhibitory activity assay (immunoplate, substrate DNA / target DNA, OD405); type: biochemical; conditions: read-out: Integrase inhibitory activity (IC50, ng/ml) (converted)
Protocol: The HIV integrase inhibitory activity was investigated based on the following assay method.
(1) Preparation of DNA Solution
By the same method as that described in Experimental Example 1 of WO 2004/024693, a substrate DNA solution (2 pmol/ml) and a target DNA solution (5 pmol/ml) were prepared. […] Each sequence of a substrate DNA and a target DNA is as described in the same Experimental Example.
(2) Measurement of Inhibition Rate (IC50 Value)
Streptavidin (manufactured by Vector Laboratories) was dissolved in a 0.1M carbonate buffer solution (composition: 90 mM Na2CO3, 10 mM NaHCO3) to a concentration of 40 μg/ml. Each […] of this solution was added to a well of an immunoplate (manufactured by NUNC), and this is allowed to stand at 4° C. overnight to adsorb. Then, each well was washed with a phosphate buffer (composition: 13.7 mM NaCl, 0.27 mM KCl, 0.43 mM Na2HPO4, 0.14 mM KH2PO4) two times, and […] of a phosphate buffer containing 1% skim milk was added to block it for 30 minutes. Further, each well was washed with a phosphate buffer two times, […] of a substrate DNA solution (2 pmol/ml) was added to adsorb at room temperature for 30 minutes while shaking, and this was washed with a phosphate buffer two times and, then, distilled water once.
Then, to each well prepared as described above were added 12 ml of a buffer (composition: 150 mM MOPS (pH7.2), 75 mM MnCl2, 50 mM 2-mercaptoethanol, 25% glycerol, 500 μg/ml bovine serum albumin-fraction V), and 51 ml of a reaction solution prepared from […] of distilled water. Then, 9 ml of an integrase solution (30 pmol) was added, and the mixture was mixed well. To a well as a negative control (NC) was added 9 ml of a diluting solution (composition: 20 mM MOPS (pH7.2), 400 mM potassium glutamete, 1 mM EDTA, 0.1% NP-40, 20% glycerol, 1 mM DTT, 4 M urea), and this was mixed well using a plate mixer. […]
C abs.; absorbance of well of compound
NC abs.: absorbance of NC
PC abs.: absorbance of PC

SMILES	IC50
COCCN1C(=O)c2c(O)c(=O)c(C(=O)NCc3ccc(F)cc3COC)cn2CC1O (stereo not drawn) [Example E-1, 3,9-Dihydroxy-2-(2-methoxy-ethyl)-1,8-dioxo-1,3,4,8-tetrahydro-2H-pyrid[1,2-a]pyrazine-7-carboxylic acid 4-fluoro-2-methoxymethyl-benzylamide]	11.1 nM
O=C(NCc1ccc(F)cc1)c1cn2ccn(Cc3ccc(F)cc3)c(=O)c2c(O)c1=O [Example A-30, 2-(4-Fluorobenzyl)-9-hydroxy-1,8-dioxo-1,8-dihydro-2H-pyrid[1,2-a]pyrazine-7-carboxylic acid 4-fluoro-benzylamide]	2.29 nM
COCCN1CC(O)n2cc(C(=O)NCc3ccc(F)cc3)c(=O)c(O)c2C1=O [Example D-41, 4,9-Dihydroxy-2-(2-methoxy-ethyl)-1,8-dioxo-1,3,4,8-tetrahydro-2H-pyrid[1,2-a]pyrazine-7-carboxylic acid 4-fluoro-benzylamide]	7.89 nM
